The source of these data is patent publication US20220291237A1 (priority 2021, published 2022).

One experiment has as its system CXCL1. The arrangement: species or system human.
The test system of a further experiment is IFNG. Set-up: species or system human.
Another experiment deals with CCL11. Briefly: Drugs that upregulate or downregulate iAge marker (Table 9). The arrangement: species or system human. To be noted: GENE CCL11; beneficial (lowers) or detrimental (raises) to iAge.
For a further experiment, the system named is TNFSF10. Set-up: species or system human.
Another experiment relates to MIG. The arrangement: species or system human.
For the next experiment, the target named is aromatase (Homo sapiens, UniProt P11511). The note with it: in vivo; cited from earlier work.
The next experiment concerns Mouse thoracic aortas. The experiment is described as follows: Acetylcholine relaxation of mouse thoracic aortic rings on wire myograph after MIG. The note with it: increasing concentrations of recombinant mouse MIG, precontracted with U46619. The procedure:
Mouse thoracic aortas were carefully dissected, and vessels were cut into small rings and mounted on an isometric wire myograph chambers (Danish Myo Technology) and subjected to a normalization protocol. Following normalization, the vessels were incubated with either PBS or different concentrations of recombinant mouse MIG (R&D systems, catalog number 492-MM). A concentration-dependent contraction curve was created by accumulative application of the prostaglandin agonist U46619. Subsequently, concentration-dependent relaxation curves of Acetylcholine were conducted on these vessels and percent relaxation calculated for each dose.

The mark [1] stands for this setting: GENE CXCL1, beneficial (lowers) or detrimental (raises) to iAge.
Where [2] appears, read: GENE IFNG, beneficial (lowers) or detrimental (raises) to iAge.
[3] abbreviates: GENE TNFSF10, beneficial (lowers) or detrimental (raises) to iAge.
Setting [4] is: GENE CXCL9 (MIG), beneficial (lowers) or detrimental (raises) to iAge.

“Also recorded” adds a separate entry of the source. Like-named read-outs stand apart in the source and are kept apart here.

TNFSF10, sequence (P50591 whole entry): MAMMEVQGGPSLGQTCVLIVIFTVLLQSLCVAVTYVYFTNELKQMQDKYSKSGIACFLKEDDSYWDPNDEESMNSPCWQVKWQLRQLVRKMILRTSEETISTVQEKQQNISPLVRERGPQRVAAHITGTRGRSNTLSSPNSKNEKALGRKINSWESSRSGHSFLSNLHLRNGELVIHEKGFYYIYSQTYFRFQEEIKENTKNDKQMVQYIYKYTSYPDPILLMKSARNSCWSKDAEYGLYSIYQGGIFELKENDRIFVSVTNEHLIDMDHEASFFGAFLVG
aromatase, sequence (P11511 whole entry): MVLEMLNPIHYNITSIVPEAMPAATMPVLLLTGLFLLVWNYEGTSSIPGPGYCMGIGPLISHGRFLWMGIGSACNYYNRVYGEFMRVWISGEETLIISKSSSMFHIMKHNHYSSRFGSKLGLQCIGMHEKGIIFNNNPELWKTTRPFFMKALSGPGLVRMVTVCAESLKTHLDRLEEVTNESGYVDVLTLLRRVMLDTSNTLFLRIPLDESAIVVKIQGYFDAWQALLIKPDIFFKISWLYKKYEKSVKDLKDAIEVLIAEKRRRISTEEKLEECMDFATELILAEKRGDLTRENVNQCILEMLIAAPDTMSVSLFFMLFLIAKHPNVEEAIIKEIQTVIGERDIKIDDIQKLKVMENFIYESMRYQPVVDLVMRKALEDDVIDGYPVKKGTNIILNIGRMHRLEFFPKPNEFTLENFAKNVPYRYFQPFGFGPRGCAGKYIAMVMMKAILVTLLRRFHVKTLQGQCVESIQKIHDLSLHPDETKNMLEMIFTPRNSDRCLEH

With `CN1C(C(=O)Nc2ccccn2)=C(O)c2ccccc2S1(=O)=O` [Piroxicam], in the experiment on CXCL1 (setting [1]), the EFFECT result is listed as “Detrimental”.

Take `O=S(=O)([O-])[O-].[Zn+2]` [Zinc sulfate]: the EFFECT entry with IFNG is reported as “Beneficial”.

On to `Oc1ccc(/C=C/c2cc(O)cc(O)c2)cc1` [Resveratrol, 3,5,4′-trihydroxy-trans-stilbene], for which the figures for the EFFECT result in the experiment with CXCL1 (setting [1]), in the experiment on IFNG (setting [2]) and with CCL11 were “Detrimental”, “Detrimental” and “Beneficial”, respectively.

For `COc1cc(CNC(=O)CCCC/C=C/C(C)C)ccc1O` [Capsaicin, reference compound], in the experiment with TNFSF10 (setting [3]), the EFFECT entry is reported as “Beneficial”.

In the case of `NCCc1c[nH]cn1` [Histamine, reference compound], the EFFECT result with IFNG is on record as “Detrimental”.

`CC(=O)N[C@@H](CS)C(=O)O` [Acetylcysteine, reference compound]: in the experiment on TNFSF10 (setting [3]), the EFFECT entry was “Detrimental”.

Regarding Vitamin E, the EFFECT entry in the experiment with TNFSF10 (setting [3]) is “Detrimental”.

Consider `NC(=O)c1ncn([C@@H]2O[C@H](CO)[C@@H](O)[C@H]2O)n1` [Ribavirin, reference compound], for which the EFFECT result in the experiment with IFNG (setting [2]) is “Detrimental”.

On to `CC(=O)CCCCn1c(=O)c2c(ncn2C)n(C)c1=O` [Pentoxifylline, reference compound], for which the EFFECT result with TNFSF10 (setting [3]) is given as “Beneficial”.

As to `[Ag]` [Silver], the EFFECT entry with TNFSF10 (setting [3]) is recorded as “Detrimental”.

`[Se]` [Selenium]: the EFFECT result was “Beneficial” in the experiment on CXCL1 (setting [1]), “Beneficial” in the experiment on MIG (setting [4]) and “Detrimental” with TNFSF10 (setting [3]).

In the case of `O=C([O-])CC([S-])C(=O)[O-].[Au+].[Na+].[Na+]` (stereo not drawn) [Sodium aurothiomalate], the EFFECT entry with CXCL1 (setting [1]) was “Detrimental”.

Take `Cn1c(=O)c2[nH]cnc2n(C)c1=O` [Theophylline]: the EFFECT entry in the experiment on IFNG is reported as “Detrimental”.

As to `CN(Cc1cnc2nc(N)nc(N)c2n1)c1ccc(C(=O)N[C@@H](CCC(=O)O)C(=O)O)cc1` [methotrexate, Methotrexate, reference compound], the EFFECT entry with CXCL1 (setting [1]) was “Detrimental; also recorded: Beneficial”; in the experiment on IFNG (setting [2]), “Detrimental”; with CCL11 it was “Beneficial”; in the experiment with TNFSF10 (setting [3]), “Beneficial”.

On to `C=CCc1ccc(O)c(OC)c1` [Eugenol], for which the EFFECT entry in the experiment with CXCL1 (setting [1]) is given as “Beneficial”.

Regarding `Nc1ccn([C@@H]2O[C@H](CO)[C@@H](O)C2(F)F)c(=O)n1` [Gemcitabine], the EFFECT entry in the experiment on CXCL1 (setting [1]) is “Beneficial”.

`CC1=C(/C=C/C(C)=C/C=C/C(C)=C\C(=O)O)C(C)(C)CCC1` [Isotretinoin]: the EFFECT entry in the experiment on CXCL1 (setting [1]) is “Detrimental”; with TNFSF10 (setting [3]), “Beneficial”.

For the molecule `C[C@]12C=CC(=O)C=C1CC[C@@H]1[C@@H]2[C@@H](O)C[C@@]2(C)[C@H]1CC[C@]2(O)C(=O)CO` [Prednisolone], the EFFECT result with CXCL1 is on record as “Detrimental”.

`Nc1ccn([C@@H]2O[C@H](CO)[C@@H](O)[C@@H]2O)c(=O)n1` [Cytarabine]: in the experiment with TNFSF10 (setting [3]), the EFFECT result is on record as “Beneficial”.

`O=C(CCCCCCC(=O)Nc1ccccc1)NO` [Vorinostat, reference compound]: in the experiment on TNFSF10 (setting [3]), the EFFECT result was “Beneficial”.

Take `N#Cc1ccc(C(c2ccc(C#N)cc2)n2cncn2)cc1` [Letrozole]: the “reduction of estrogen levels” value on aromatase is given as 98%.

Turning to `CN/C(=N/CCSCc1nc[nH]c1C)NC#N` [Cimetidine], in the experiment on IFNG, the EFFECT result was “Beneficial”.

Consider `Oc1cccc2cccnc12` [Oxyquinoline], for which, in the experiment with TNFSF10, the EFFECT entry is listed as “Beneficial”.

`CC#C[C@]1(O)CC[C@H]2[C@@H]3CCC4=CC(=O)CCC4=C3[C@@H](c3ccc(N(C)C)cc3)C[C@@]21C` [Mifepristone]: the EFFECT entry in the experiment with CXCL1 (setting [1]) is reported as “Detrimental”.

For the molecule `O=O` [Oxygen], the EFFECT entry in the experiment on IFNG and with TNFSF10 was “Beneficial” in each case.

As to `CC(=O)[C@H]1CC[C@H]2[C@@H]3CCC4=CC(=O)CC[C@]4(C)[C@H]3CC[C@]12C` [Progesterone], the EFFECT entry in the experiment on CXCL1 (setting [1]), in the experiment with MIG (setting [4]) and with TNFSF10 (setting [3]) was “Detrimental” throughout.

Take `O=c1[nH]cc(F)c(=O)[nH]1` [Fluorouracil, reference compound]: the EFFECT result in the experiment on TNFSF10 (setting [3]) is “Beneficial”.

Consider `CC(=O)Nc1ccc(O)cc1` [Acetaminophen], for which the EFFECT result with TNFSF10 is reported as “Detrimental”.

Take `[Cr]` [Chromium]: the EFFECT result in the experiment with TNFSF10 (setting [3]) is “Detrimental”.

With `CC1=C(/C=C/C(C)=C/C=C/C(C)=C/C(=O)O)C(C)(C)CCC1` [Tretinoin, reference compound], the EFFECT result with CXCL1 (setting [1]) is recorded as “Detrimental”; in the experiment with IFNG (setting [2]), “Detrimental”; in the experiment with TNFSF10 (setting [3]), “Beneficial”.

Regarding `[Zn]` [Zinc], the EFFECT result in the experiment on IFNG (setting [2]) is on record as “Beneficial”; with CCL11 it was “Detrimental”.

As for `[Gd]` [Gadolinium], the EFFECT result with IFNG (setting [2]) is “Beneficial”.

In the case of `O.O.O.O.O.O.O.O.O.O=C([O-])[C@@H]1[O][Sb]2([O-])([O][Sb]34([OH])[O][C@H]([C@H](O)CO)[C@H]([O]3)[C@H](C(=O)[O-])[O]4)[O][C@H]([C@H](O)CO)[C@@H]1[O]2.[Na+].[Na+].[Na+]` [Sodium stibogluconate], the EFFECT result in the experiment on IFNG (setting [2]) is recorded as “Detrimental”.

Regarding `COc1cccc2c1C(=O)c1c(O)c3c(c(O)c1C2=O)C[C@@](O)(C(=O)CO)C[C@@H]3O[C@H]1C[C@H](N)[C@H](O)[C@H](C)O1` [Doxorubicin], the EFFECT entry in the experiment on TNFSF10 (setting [3]) is recorded as “Beneficial”.

Consider Arsenic trioxide, for which the EFFECT entry in the experiment with MIG (setting [4]) is “Beneficial”; with TNFSF10 (setting [3]) it was “Detrimental; also recorded: Beneficial”.

For the molecule `CC1=C(/C=C/C(C)=C/C=C/C(C)=C/C=C/C=C(C)/C=C/C=C(C)/C=C/C2=C(C)CCCC2(C)C)C(C)(C)CCC1` [Beta carotene], the EFFECT entry is “Detrimental” in the experiment on MIG and “Beneficial” in the experiment with TNFSF10.

As for `CC1=C(/C=C/C(C)=C\C=C\C(C)=C\C(=O)O)C(C)(C)CCC1` [Alitretinoin, reference compound], the values for the EFFECT entry in the experiment with CXCL1 (setting [1]), in the experiment with IFNG (setting [2]) and in the experiment with TNFSF10 (setting [3]) were “Detrimental”, “Detrimental” and “Beneficial”, respectively.

On to `CC(C)C[C@H](NC(=O)[C@H](Cc1ccccc1)NC(=O)c1cnccn1)B(O)O` [Bortezomib, reference compound], for which the EFFECT result in the experiment with CXCL1 (setting [1]) is recorded as “Beneficial”; in the experiment on TNFSF10 (setting [3]) it was “Detrimental”.

For the molecule `C=CC[C@@H]1/C=C(\C)C[C@H](C)C[C@H](OC)[C@H]2O[C@@](O)(C(=O)C(=O)N3CCCC[C@H]3C(=O)O[C@H](/C(C)=C/[C@@H]3CC[C@@H](O)[C@H](OC)C3)[C@H](C)[C@@H](O)CC1=O)[C@H](C)C[C@@H]2OC` [Tacrolimus], the EFFECT entry in the experiment with CCL11 is given as “Beneficial”.

On to `CCCCCc1cc(O)c2c(c1)OC(C)(C)[C@@H]1CCC(C)=C[C@@H]21` [Dronabinol, reference compound], for which the EFFECT entry with IFNG (setting [2]) was “Detrimental”.

For the molecule `Nc1ncn([C@H]2C[C@H](O)[C@@H](CO)O2)c(=O)n1` [Decitabine, 5-aza-2′-deoxycytidine, reference compound], the EFFECT entry with TNFSF10 (setting [3]) is recorded as “Beneficial”.

As for `CC[C@]1(O)C[C@H]2CN(CCc3c([nH]c4ccccc34)[C@@](C(=O)OC)(c3cc4c(cc3OC)N(C=O)[C@H]3[C@@](O)(C(=O)OC)[C@H](OC(C)=O)[C@]5(CC)C=CCN6CC[C@]43[C@@H]65)C2)C1` [Vincristine], the EFFECT entry with IFNG (setting [2]) is on record as “Beneficial”; in the experiment on MIG (setting [4]), “Detrimental”; in the experiment on TNFSF10 (setting [3]) it was “Beneficial”.

Regarding `N.N.[Cl][Pt][Cl]` [Cisplatin], the EFFECT result with TNFSF10 (setting [3]) was “Beneficial”.

Take `[Fe]` [Iron]: the EFFECT result with TNFSF10 (setting [3]) is recorded as “Beneficial”.

B1: MIG: recombinant mouse MIG (R&D systems, catalog number 492-MM) (protein, UniProt Q07325 23-125, looked up)
C-X-C motif chemokine 9: TPVVRKGRCSCISTNQGTIHLQSLKDLKQFAPSPSCEKIEIIATLKNGVQTCLNPDSADVKELIKKWEKQVSQKKKQKNGKKHQKKKVLKVRKSQRSRQKKTT
As for B1, the “effect on vasorelaxation to Acetylcholine” value in the experiment on Mouse thoracic aortas is “impairs vascular function”.
